Values joined by “and” are separate entries in the source; they are usually repeats but may differ in a detail not shown here. Equal entries are not always repeated. “Also recorded” adds a separate entry of the source.
What was measured:
intestinal lactase [1] = molecular target: T1, intestinal lactase (Homo sapiens, UniProt P09848); experiment: Plasma xylose concentration after single oral doses of 4-GX in healthy volunteers; type: in vivo; details: for AUC 0-t: area under the curve of plasma xylose concentration against time: mean
T1 construct: after its oral administration it is hydrolysed by the intestinal mucosa enzyme; from tissue; host or cells: small-intestinal mucosa (enterocyte brush border) of living human volunteers and patients, in vivo
Experimental: (§1) Two groups of subjects were selected. […] Firstly, the lowest suitable oral dose of 4-GX administered to healthy volunteers was determined that enabled reliable detection (in terms of accuracy and reproducibility) of xylose levels in urine and blood via the analytical method to be used. In addition, the tolerance of these subjects to the various doses of 4-GX used in the test and the pharmacokinetics for each dose administered were analysed, both in urine and blood. The doses of 4-GX used were: 0.125 g, 0.250 g, 0.5 g, 1 g, 3 g and 6 g in addition to placebo in 12 healthy volunteers with washout period between doses of between three and seven days. It should be appreciated that the 4-GX doses can include small quantities of water which remain subsequent to the drying process of the 4-GX product. For example, the 4-GX product can contain about 8 wt % to about 12 wt %, most likely about 10 wt % water, based on the total weight of the product. Accordingly, the aforementioned 4-GX doses administered would actually include 0.1125 g, 0.225 g, 0.45 g, 0.9 g, 2.7 g and 5.4 g of actual 4-GX product, respectively, if they contain 10 wt % water. The study was performed with seven treatment periods and a washout time between the various periods of at least 3 days. In each study period, an ascending dose of 4-GX was administered and the serum and urine concentrations of xylose were measured at various times up to 8 hours following the administration of the drug.
The main measured variable was the quantity of xylose in urine collected following oral administration of 4-GX at the following times: basal, 0-1 h, 1-2 h, 2-3 h, 3-4 h, 4-5 h, 5-6 h, 6-7 h and 7-8 h. Secondary variables quantified were the plasma concentration of xylose measured in blood samples extracted following the oral administration of 4-GX at the following times: basal, 30 min, 60 min, 90 min, 120 min, 150 min, 3 h, 4 h, 5 h, 6 h, 7 h and 8 h. A pharmacokinetic analysis was also performed using the values of AUC (area under the curve of variation in the plasma xylose concentration against time), Cmax (maximum xylose plasma concentration), Tmax (time at which maximum xylose plasma concentration was reached) and T1/2 (elimination half-life), calculated from the plasma concentrations of xylose derived from the hydrolysis of 4-GX by intestinal lactase.
The next objective was the determination and pharmacokinetic analysis of the xylose concentration in plasma in order to identify the smallest dose of 4-GX that could be distinguished from placebo (without 4-GX administration) to be used in the 4-GX test for the diagnosis of intestinal lactase deficiency (Table 3).

intestinal lactase [2] = molecular target: T1, intestinal lactase; experiment: 4-GX test in 90-minutes blood, patients with symptoms suggestive of lactose intolerance; type: in vivo
Experimental: The diagnostic tests to which these patients were subjected were: • Intestinal biopsy: determining intestinal lactase activity therein. • Hydrogen breath test after the oral administration to patients of 50 g of lactose. While this test was being carried out, several capillary-blood glucose test (Glycemia tests) were carried out, calculating the highest increase observed in the blood glucose concentration compared to basal glucose level before starting the test. • 4-GX test in total urine at 0-4 and 0-5 hours, which was orally administered to patients 0.5 g of this product (or 0.45 g in a 4-GX sample including 10 wt % water), collecting the total urine accumulated over 0-4 h and 0-5 h following the administration of 4-GX and determining the amount of excreted xylose in both volumes of urine. • 4-GX test in blood which was orally administered to patients 3 g of this product (or 2.7 g in a 4-GX sample including 10 wt % water) to determine the concentration of plasma xylose in a blood sample 90 minutes after ingestion of the product. The concentration obtained was compared to a basal blood sample extracted before ingestion of 4-GX.
The 4-GX was orally administered in a single dose dissolved in 100 ml of water.
The blood samples were centrifuged to obtain plasma in which the analysis of the amount of xylose present was performed.
From the data obtained from the various urine tests for intestinal lactase deficiency following oral ingestion of 4-GX described in the present invention, a descriptive statistical analysis was performed of the amount of xylose excreted in the urine up to 4 hours and up to 5 hours following said administration. The same was done with the blodd test for intestinal lactase activity following oral ingestion of 4-GX, where descriptive statistical analysis was performed on the amount of xylose present in the plasma of subjects at 90 minutes following administration of 4-GX. The net increase in the plasma xylose concentration compared to basal values was also calculated.
To obtain the statistical parameters of lactase determination using the various 4-GX tests described in the present invention and later to compare them with the results obtained from the intestinal biopsy test, hydrogen in exhaled air test and capillary-blood glucose test, the normal limits of the measurement of the total amount of xylose excreted in 4-hour and 5-hour urine and the concentration of blood xylose after 90 minutes following ingestion of 4-GX described in Table 5 were used. The normal limits for the other tests were those used in common clinical practice for the diagnosis of lactose intolerance (Arola, H. (1994) Diagnosis of hypolactasia and lactose malabsorption. Scand. J. Gastroenterol. […] (Suppl), 26-35), which are:
For the measurement of lactase by intestinal biopsy, the lower normal limit is established at 10 units/g protein, with values less than this being considered positive.

[3] = Safety and tolerance of the 4-GX doses; type: in vivo, human; details: all doses of 4-GX used (0.125 g to 6 g oral)
Experimental: as §1, with “The study was performed with seven treatment periods and a washout time between the various periods of at least 3 days.” left out

[4] = 3 g 4-GX, 90-min blood, lactase in intestinal biopsy as gold standard
[5] = 3 g 4-GX, plasma at 90 min, cut-off 0.97 mg/dL, 205 patients
[6] = blood, after correcting biopsy diagnosis
[7] = blood, after correction of the biopsy diagnostic result (five discrepancies)
[8] = blood, after correction of the biopsy diagnostic result (four discrepancies)
[9] = blood, final criteria of Table 9

T1 sequence (P09848 869-1927): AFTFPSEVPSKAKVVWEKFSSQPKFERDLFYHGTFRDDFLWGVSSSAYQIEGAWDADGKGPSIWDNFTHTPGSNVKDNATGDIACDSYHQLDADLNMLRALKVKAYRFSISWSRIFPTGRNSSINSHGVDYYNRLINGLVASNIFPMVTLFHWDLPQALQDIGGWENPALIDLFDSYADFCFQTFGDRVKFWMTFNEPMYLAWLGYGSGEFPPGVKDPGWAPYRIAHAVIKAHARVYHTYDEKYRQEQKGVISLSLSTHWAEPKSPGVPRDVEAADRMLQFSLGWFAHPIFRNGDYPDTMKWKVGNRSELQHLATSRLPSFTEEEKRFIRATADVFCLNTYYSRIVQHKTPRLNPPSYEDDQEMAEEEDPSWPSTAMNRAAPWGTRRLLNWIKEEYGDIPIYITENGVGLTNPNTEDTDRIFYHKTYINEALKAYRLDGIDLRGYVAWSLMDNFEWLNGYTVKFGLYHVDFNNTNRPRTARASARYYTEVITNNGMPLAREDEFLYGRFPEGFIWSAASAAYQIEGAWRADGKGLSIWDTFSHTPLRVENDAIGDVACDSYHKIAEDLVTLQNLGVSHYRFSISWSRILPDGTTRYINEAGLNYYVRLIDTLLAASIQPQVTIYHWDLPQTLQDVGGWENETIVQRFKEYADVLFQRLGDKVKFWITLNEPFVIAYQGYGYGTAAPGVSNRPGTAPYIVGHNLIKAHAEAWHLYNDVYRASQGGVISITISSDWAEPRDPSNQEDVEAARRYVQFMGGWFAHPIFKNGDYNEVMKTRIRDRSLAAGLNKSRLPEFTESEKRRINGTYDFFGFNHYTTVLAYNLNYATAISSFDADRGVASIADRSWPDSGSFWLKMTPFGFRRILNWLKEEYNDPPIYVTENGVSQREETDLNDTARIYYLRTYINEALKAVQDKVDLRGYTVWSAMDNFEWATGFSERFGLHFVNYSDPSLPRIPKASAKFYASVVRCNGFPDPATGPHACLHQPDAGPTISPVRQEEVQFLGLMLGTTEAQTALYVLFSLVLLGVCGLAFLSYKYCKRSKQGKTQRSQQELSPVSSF

AUC 0-t: area under the curve of plasma xylose concentration against time (intestinal lactase [1]; 4-GX 0.125 g oral): 32.49 mg/dL/h | AUC 0-t: area under the curve of plasma xylose concentration against time (intestinal lactase [1]; 4-GX 0.250 g oral): 34.25 mg/dL/h | AUC 0-t: area under the curve of plasma xylose concentration against time (intestinal lactase [1]; 4-GX 0.5 g oral): 35.53 mg/dL/h | AUC 0-t: area under the curve of plasma xylose concentration against time (intestinal lactase [1]; 4-GX 1 g oral): 36.60 mg/dL/h | AUC 0-t: area under the curve of plasma xylose concentration against time (intestinal lactase [1]; 4-GX 3 g oral): 39.24 mg/dL/h | AUC 0-t: area under the curve of plasma xylose concentration against time (intestinal lactase [1]; 4-GX 6 g oral): 41.39 mg/dL/h | lowest dose of 4-GX for which plasma xylose differs significantly from placebo (intestinal lactase [1]; healthy volunteers): 3 g
Compound: O=C[C@H](O)[C@@H](O)[C@@H](CO)O[C@@H]1O[C@H](CO)[C@H](O)[C@H](O)[C@H]1O [4-GX, 4-O-β-galactopyranosyl-D-xylose]
Negative predictive value (intestinal lactase [2]; [4]): 91.8% and 91.75% | Positive predictive value (intestinal lactase [2]; [4]): 93.4% | Sensitivity (intestinal lactase [2]; [4]): 92.5% and 92.52% | Specificity (intestinal lactase [2]; [4]): 92.7% and 92.71% | No. Negative (intestinal lactase [2]; [5]): 97 | No. Positive (patients presenting intestinal lactase deficiency) (intestinal lactase [2]; [5]): 106 | Percentage of patients negative (intestinal lactase [2]; [5]): 48% | Percentage of patients positive (intestinal lactase [2]; [5]): 51.7% and 52% | sensitivity calculated using the ROC curves (intestinal lactase [2]; blood samples): 92.5% | specificity calculated using the ROC curves (intestinal lactase [2]; blood samples): 92.7% | range of recalculated sensitivity, specificity, positive and negative predictive values (intestinal lactase [2]; blood test, after correcting biopsy diagnosis): 97.94-98.11 | false negatives (intestinal lactase [2]; [6]): 1.89% | negative likelihood ratio (intestinal lactase [2]; [6]): 0.019 | positive likelihood ratio (intestinal lactase [2]; [6]): 47.585 | Negative predictive value (intestinal lactase [2]; [7]): 97.94% | Positive predictive value (intestinal lactase [2]; [7]): 98.11% | Sensitivity (intestinal lactase [2]; [7]): 98.11% | Specificity (intestinal lactase [2]; [7]): 97.94% | Negative predictive value (intestinal lactase [2]; [8]): 98.97% | Positive predictive value (intestinal lactase [2]; [8]): 99.06% | Sensitivity (intestinal lactase [2]; [8]): 99.06% | Specificity (intestinal lactase [2]; [8]): 98.97% | area under the ROC curve (intestinal lactase [2]; blood, biopsy as gold standard): 0.9268 | false negatives (intestinal lactase [2]; blood, biopsy as gold standard): 7.5% | false positives (intestinal lactase [2]; blood, biopsy as gold standard): 7.3% | concordant positive results, percentage (intestinal lactase [2]; [9]): 97.2% | final number of concordant positive results (intestinal lactase [2]; [9]): 104 | negative results (concordant), percentage (intestinal lactase [2]; [9]): 96.9% | number of negative results (concordant) (intestinal lactase [2]; [9]): 95 | adverse reactions, safety and tolerance [3]: safe and innocuous; also recorded: no clinically significant adverse reactions were found

From patent US9128100B2, “Non-invasive diagnostic method for the evaluation of intestinal lactase deficiency (hypolactasia)” (Venter Pharma, S.L., priority 2012, dated 2015)
